Data reported in ChEMBL document CHEMBL1145366, “A new class of histamine H3 receptor antagonists derived from ligand based design” (Bioorg Med Chem Lett, 2007).

How the values were obtained:
[1] = biological target: T1, Histamine H3 receptor (Homo sapiens, UniProt Q9Y5N1); experiment: Binding affinity to human histamine H3 receptor
[2] = biological target: T1, Histamine H3 receptor; experiment: Displacement of [3H](R)-alpha-methylhistamine from human histamine H3 receptor at 10 uM
[3] = biological target: Histamine H1 receptor (Homo sapiens) (UniProt P35367); experiment: Displacement of [3H]pyrilamine from human histamine H1 receptor at 10 uM
Histamine H1 receptor (Homo sapiens), sequence (P35367 whole entry): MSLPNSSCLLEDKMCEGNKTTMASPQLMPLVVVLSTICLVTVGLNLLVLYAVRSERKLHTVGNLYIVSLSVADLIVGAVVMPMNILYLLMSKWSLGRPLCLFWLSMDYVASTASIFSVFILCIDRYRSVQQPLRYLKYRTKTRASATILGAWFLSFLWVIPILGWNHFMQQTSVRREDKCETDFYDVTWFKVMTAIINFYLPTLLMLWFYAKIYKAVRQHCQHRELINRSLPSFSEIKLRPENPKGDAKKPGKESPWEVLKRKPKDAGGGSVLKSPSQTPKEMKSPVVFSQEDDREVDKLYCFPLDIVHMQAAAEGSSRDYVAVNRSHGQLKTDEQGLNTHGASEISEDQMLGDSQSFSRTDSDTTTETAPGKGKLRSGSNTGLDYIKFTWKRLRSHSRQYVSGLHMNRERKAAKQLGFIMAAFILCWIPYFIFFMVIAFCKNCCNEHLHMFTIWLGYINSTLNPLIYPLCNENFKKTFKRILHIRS

[4] = biological target: Histamine H2 receptor (Homo sapiens) (UniProt P25021); experiment: Displacement of [3H]tiotidine from human histamine H2 receptor at 10 uM
Histamine H2 receptor (Homo sapiens), sequence (P25021 whole entry): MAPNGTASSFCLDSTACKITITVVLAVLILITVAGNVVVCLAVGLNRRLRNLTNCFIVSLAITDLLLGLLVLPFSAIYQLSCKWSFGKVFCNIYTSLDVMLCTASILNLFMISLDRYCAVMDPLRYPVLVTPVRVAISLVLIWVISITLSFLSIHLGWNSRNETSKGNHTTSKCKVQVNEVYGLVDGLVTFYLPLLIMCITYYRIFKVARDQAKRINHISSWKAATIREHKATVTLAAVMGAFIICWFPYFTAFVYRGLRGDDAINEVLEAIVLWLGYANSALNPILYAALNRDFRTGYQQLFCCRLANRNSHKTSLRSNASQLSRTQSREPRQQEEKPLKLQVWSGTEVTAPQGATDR

[5] = biological target: Histamine H3 receptor (Rattus norvegicus, UniProt Q9QYN8); experiment: Binding affinity to rat histamine H3 receptor
Histamine H3 receptor (Rattus norvegicus, UniProt Q9QYN8), sequence (Q9QYN8 whole entry): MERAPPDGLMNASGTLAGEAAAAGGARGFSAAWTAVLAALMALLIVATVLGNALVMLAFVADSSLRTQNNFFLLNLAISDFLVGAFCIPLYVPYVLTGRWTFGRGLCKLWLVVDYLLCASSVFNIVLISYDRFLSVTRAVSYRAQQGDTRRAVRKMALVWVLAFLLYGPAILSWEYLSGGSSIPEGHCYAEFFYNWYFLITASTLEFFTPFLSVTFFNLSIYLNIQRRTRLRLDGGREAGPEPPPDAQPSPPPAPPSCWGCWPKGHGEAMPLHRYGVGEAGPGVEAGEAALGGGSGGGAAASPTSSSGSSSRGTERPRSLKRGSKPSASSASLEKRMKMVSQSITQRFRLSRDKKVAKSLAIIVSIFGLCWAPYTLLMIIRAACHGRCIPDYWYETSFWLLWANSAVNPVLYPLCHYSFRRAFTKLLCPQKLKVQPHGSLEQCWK

[6] = biological target: T1, Histamine H3 receptor; experiment: Inverse agonist activity at human histamine H3 receptor by GTP gammaS assay; assay type: functional

T1 sequence (Q9Y5N1 whole entry): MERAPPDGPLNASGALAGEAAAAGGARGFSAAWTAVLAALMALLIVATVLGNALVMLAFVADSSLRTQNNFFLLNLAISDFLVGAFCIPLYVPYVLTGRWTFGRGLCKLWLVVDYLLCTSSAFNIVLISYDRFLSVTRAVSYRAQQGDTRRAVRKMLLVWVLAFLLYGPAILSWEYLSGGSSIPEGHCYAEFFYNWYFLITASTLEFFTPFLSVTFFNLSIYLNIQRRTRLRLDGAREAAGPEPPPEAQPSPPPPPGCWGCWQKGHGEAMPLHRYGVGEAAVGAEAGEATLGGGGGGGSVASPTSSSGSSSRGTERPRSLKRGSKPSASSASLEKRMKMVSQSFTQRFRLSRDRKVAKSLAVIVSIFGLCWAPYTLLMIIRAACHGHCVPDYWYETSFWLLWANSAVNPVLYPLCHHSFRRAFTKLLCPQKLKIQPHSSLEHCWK

| Compound | Ki [1] [nM] | Activity [2] [%] | further results |
| --- | --- | --- | --- |
| COc1ccccc1COc1ccc(OCCCN2CCOCC2)cc1C(=O)N(C)C | 1390 | 73.4 |  |
| CN(C)CCCOc1ccc(Oc2ncnc3ccccc23)c(C(=O)N(C)C)c1 | 1020 |  |  |
| CN(C)C(=O)c1cc(OCc2ccc(F)cc2)ccc1OCc1ccccc1Cl |  | 33 |  |
| CN(C)C(=O)c1cc(OC2CCCCO2)ccc1OCc1ccccc1Cl (stereo unspecified) |  | 17 |  |
| CN(C)Cc1cc(OCCCCl)ccc1Nc1ncnc2ccccc12 |  | 49 |  |
| COc1ccccc1COc1ccc(OCCCN2CCCCC2)cc1C(=O)N(C)C | 12 |  |  |
| COC(=O)c1ccc(COc2ccc(Nc3ncnc4ccccc34)c(CN(C)C)c2)cc1 |  | 31 |  |
| CCOC(=O)CCCOc1ccc(Nc2ncnc3ccccc23)c(CN(C)C)c1 |  | 28 |  |
| CN(C)CCCOc1ccc(Nc2ncnc3ccccc23)c(CN(C)C)c1 | 18 |  | Activity [3]: -15%; Activity [4]: -2% |
| CN(C)Cc1cc(OCCCN2CCCCC2)ccc1Nc1ncnc2ccccc12 | 0.3 |  | Ki [5]: 9.8 nM; EC50 [6]: 0.2 nM; Activity [3]: -2.5%; Activity [4]: 2.4% |
| CN(C)C(=O)c1cc(OCCCN2CCOCC2)ccc1OCc1ccccc1Cl | 1100 |  |  |
| CN(C)CCCOc1ccc(OCc2ccccc2Cl)c(CN(C)C)c1 | 135 |  |  |
| CN(C)Cc1cc(OCCCN2CCCCC2)ccc1OCc1ccccc1Cl | 2.4 |  |  |
| CN(C)Cc1cc(O)ccc1Nc1ncnc2ccccc12 |  | 11.6 |  |
| CC(C)N1CCC(Oc2ccc(OCc3ccccc3Cl)c(CN(C)C)c2)C1 (stereo unspecified) | 88 |  |  |
| CN(C)Cc1cc(OCC2CCCN(C)C2)ccc1OCc1ccccc1Cl (stereo unspecified) | 150 |  |  |
| CN(C)C(=O)c1cc(OCCCN2CCCCC2)ccc1OCc1ccccc1Cl | 47 |  | Activity [3]: 8% |
| CN(C)C(=O)c1cc(OCCC2CCCN2C)ccc1OCc1ccccc1Cl (stereo unspecified) | 1810 |  |  |
